Data set [1] relates to C57BL/6J mice. The experiment in a line: Behavioural responses indicative of serotonin syndrome and motor activity, observed in the mouse head twitch study. The data set is classed as in vivo. The procedure: (§1) The effect of different doses of representative compounds of Formula I was evaluated on head-twitch response (HTR) and other behavioural responses indicative of serotonin syndrome as behavior-based models of psychedelic activity.
(§2) Male, C57BL/6J mice (body weight range 20-30 g) were dosed with the appropriate dose of test article, and following a 1-minute pre-treatment time, placed in individual observation chambers. Animals were visually assessed for the incidence head twitches continuously over a 1 hr period. Head twitches were defined as a rapid jerk of the head which was not elicited by an external tactile stimulus (Come and Pickering, Psychopharmacologia, 1967, 11(1): 65-78). Each head twitch was individually counted by a trained observer, and the data expressed as the mean±SEM of 6-10 mice per group. Mice were used in a single experiment only.

Data set [2] deals with C57BL/6J mice. The experiment in a line: Mouse head twitch response (HTR). The data set is classed as in vivo. As to conditions: for duration of HT expression: at 10-30 mg/kg. Here is the method:
as §1, §2

Data set [3] has as its target T1, human 5-HT2A receptor (Homo sapiens, UniProt P28223). The experiment in a line: biochemical.
For data set [4], the target named is human 5-HT2A (h5-HT2A) receptor (Homo sapiens, UniProt P28223). Put plainly: FLIPR calcium assay, human 5-HT2A, agonist mode.
Data set [5] has as its target T1, human 5-HT2A receptor. As to conditions: read-out: h5-HT2A IC50; competition with [3H]-ketanserin, cell membranes.

pEC50, pIC50: −log10 of the molar value. Read-outs that look alike come from different tables or passages of the source.

human 5-HT2A (h5-HT2A) receptor, sequence (P28223 whole entry): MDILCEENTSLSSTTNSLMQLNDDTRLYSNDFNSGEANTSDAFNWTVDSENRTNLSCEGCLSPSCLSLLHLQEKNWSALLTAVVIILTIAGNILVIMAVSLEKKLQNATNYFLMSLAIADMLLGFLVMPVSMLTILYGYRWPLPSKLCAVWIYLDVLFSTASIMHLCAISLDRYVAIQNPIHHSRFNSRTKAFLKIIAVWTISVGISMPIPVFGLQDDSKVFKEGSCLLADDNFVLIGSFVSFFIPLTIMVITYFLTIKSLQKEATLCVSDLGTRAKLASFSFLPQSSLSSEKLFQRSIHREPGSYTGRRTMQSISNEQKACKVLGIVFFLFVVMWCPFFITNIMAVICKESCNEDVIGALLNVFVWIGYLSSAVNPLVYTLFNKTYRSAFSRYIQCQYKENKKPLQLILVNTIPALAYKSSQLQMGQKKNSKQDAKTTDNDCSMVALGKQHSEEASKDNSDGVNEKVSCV
T1 sequence (P28223 whole entry): as above

In the case of `[2H]C([2H])(c1c[nH]c2ccc(OC)cc12)[C@H]1CCCN1C(=O)CCCCCCC/C=C\C/C=C\CCCCC` [(R)—I-51], in the data set with C57BL/6J mice [1] (1-30 mg/kg, not formally measured), the motor activity entry is “did not reduce motor activity”. Further, the “signs of 5-HT syndrome (whole body twitches, FPT, Straub tail)” value in the data set on C57BL/6J mice [1] (up to 60 mg/kg SC) is listed as “did not induce signs of 5-HT syndrome”. The ED50 in the data set on C57BL/6J mice [2] (Mus musculus, male C57BL/6J mice, SC, head twitches counted over 1 hr) was 2.8 mg/kg. Besides, in the data set with C57BL/6J mice [2] (mice, 1-60 mg/kg SC, compared to 5-MeO DMT), the “head twitch response expression” value is given as “elicited a robust head twitch response expression”. Also, the “duration of HT expression” value in the data set with C57BL/6J mice [2] (mice, SC) was in the range of 0 to 30 min.

In turn, `CCCCC/C=C\C/C=C\CCCCCCCC(=O)N1CCC[C@@H]1Cc1c[nH]c2ccccc12` [Compound I-46, (9Z,12Z)-1-((R)-2-((1H-Indol-3-yl)methyl)pyrrolidin-1-yl)octadeca-9,12-dien-1-one] had a pIC50 on human 5-HT2A receptor [3] below 4.52. In addition, the pEC50 in data set [4] is below 4.52.

Turning to `CCCCC/C=C\C/C=C\CCCCCCCC(=O)N1CCC(c2c[nH]c3ccccc23)C1` (stereo not shown) [Compound I-84, (9Z,12Z)-1-(3-(1H-Indol-3-yl)pyrrolidin-1-yl)octadeca-9,12-dien-1-one], at human 5-HT2A receptor [3], the negative-log IC50 (pIC50) is 4.52 to 5.00. The negative logarithm of the EC50 (pEC50) in data set [4] is below 4.52.

On human 5-HT2A receptor [3], `CCCCC/C=C\C/C=C\CCCCCCCC(=O)N1CCC(c2c[nH]c3ccc(OC)cc23)CC1` [Compound I-88, (9Z,12Z)-1-(4-(5-Methoxy-1H-indol-3-yl)piperidin-1-yl)octadeca-9,12-dien-1-one] gave a negative-log IC50 (pIC50) of 4.52 to 5.00. The pEC50 in data set [4] is below 4.52.

Consider `COc1ccc2[nH]cc(CCN(C)C)c2c1` [Compound 5-MeO-DMT, 5-MeO-DMT, reference compound], for which, in the data set on C57BL/6J mice [2] (male C57BL/6J mice, SC, head twitches counted over 1 hr), the “ED50 head twitch response” value is recorded as 8 mg/kg. In the data set with C57BL/6J mice [2] (mice, SC), the “duration of HT expression” value is 0 to 20 min.

Compound `CCCCC/C=C\C/C=C\CCCCCCCC(=O)N1CCC[C@@H]1Cc1c[nH]c2ccc(OC)cc12` [Compound I-55, (9Z,12Z)-1-((R)-2-((5-Methoxy-1H-indol-3-yl)methyl)pyrrolidin-1-yl)octadeca-9,12-dien-1-one] gave a negative-log IC50 (pIC50) at human 5-HT2A receptor [3] below 4.52. In addition, the pEC50 in data set [4] is below 4.52.

As for `CN(C)CCc1c[nH]c2ccccc12` [DMT], the negative-log IC50 (pIC50) on human 5-HT2A receptor [5] was above 5.00. Besides, the pEC50 in data set [4] (read-out: h5-HT2A EC50, FLIPR calcium assay, agonist mode) was above 5.00.

For the compound `CCCCC/C=C\C/C=C\CCCCCCCC(=O)N(C)CCc1c[nH]c2ccccc12` [Compound I-1, (9Z,12Z)—N-(2-(1H-Indol-3-yl)ethyl)-N-methyloctadeca-9,12-dienamide], the pIC50 against human 5-HT2A receptor [3] was 4.52 to 5.00. Besides, in data set [4], the pEC50 is below 4.52.

As to `CCCCC/C=C\C/C=C\CCCCCCCC(=O)N1CCC(c2c[nH]c3ccc(OC)cc23)C1` (stereo not shown) [Compound I-81, (9Z,12Z)-1-(3-(5-Methoxy-1H-indol-3-yl)pyrrolidin-1-yl)octadeca-9,12-dien-1-one], the pIC50 at human 5-HT2A receptor [3] is below 4.52. Further, the negative-log EC50 (pEC50) in data set [4] is below 4.52.

With `CCCCC/C=C\C/C=C\CCCCCCCC(=O)N1CCC(c2c[nH]c3ccccc23)CC1` [Compound I-87, (9Z,12Z)-1-(4-(1H-Indol-3-yl)piperidin-1-yl)octadeca-9,12-dien-1-one], the pIC50 against human 5-HT2A receptor [3] is 4.52 to 5.00. The pEC50 in data set [4] is below 4.52.

On to `CCCCC/C=C\C/C=C\CCCCCCCC(=O)N(C)CCc1c[nH]c2ccc(OC)cc12` [Compound I-21, (9Z,12Z)—N-(2-(5-Methoxy-1H-indol-3-yl)ethyl)-N-methyloctadeca-9,12-dienamide], for which the negative-log IC50 (pIC50) against human 5-HT2A receptor [3] is 4.52 to 5.00. Also, in data set [4], the pEC50 is below 4.52.

The values are drawn from patent publication US20240383850A1, “INDOLE DERIVATIVES AS SEROTONERGIC AGENTS USEFUL FOR THE TREATMENT OF DISORDERS RELATED THERETO” (Mindset Pharma Inc., priority 2021, published 2024).
